Measured values reported in ChEMBL document CHEMBL2046343, “'Click' synthesis of a triazole-based inhibitor of Met functions in cancer cells” (Bioorg Med Chem Lett, 2012).
Activity calls are given as the source filed them. The calls are words filed in the database; no cut-off is given here.

Legend:
H1437 = test: Inhibition of HGF-induced Met R988C mutant phosphorylation at Tyr1234 and Tyr1235 in human H1437 cells at 10 uM by immunoblotting
NCI-H1437 = test: Cytotoxicity against human NCI-H1437 cells assessed as inhibition of anchorage-independent cell growth treated every 3 days for 2 weeks by MTT assay; format: functional, cell-based
MDCK = test: Cytotoxicity against MDCK cells at IC50; format: cell-based, Canis lupus familiaris; settings: dog
[1] = molecular target: Hepatocyte growth factor receptor (Canis lupus familiaris) (UniProt Q75ZY9); test: Inhibition of HGF-induced Met phosphorylation at Tyr1234 and Tyr1235 in MDCK cells at 10 uM by immunoblotting; format: cell-based
GTL 16 = test: (§1) Cytotoxicity against human GTL16 cells expressing MET assessed as inhibition of anchorage-independent cell growth treated every 3 days for 2 weeks by MTT assay; format: functional, cell-based
[2] = as §1; format: functional, cell-based; settings: GTL 16

Hepatocyte growth factor receptor (Canis lupus familiaris), sequence (Q75ZY9 whole entry): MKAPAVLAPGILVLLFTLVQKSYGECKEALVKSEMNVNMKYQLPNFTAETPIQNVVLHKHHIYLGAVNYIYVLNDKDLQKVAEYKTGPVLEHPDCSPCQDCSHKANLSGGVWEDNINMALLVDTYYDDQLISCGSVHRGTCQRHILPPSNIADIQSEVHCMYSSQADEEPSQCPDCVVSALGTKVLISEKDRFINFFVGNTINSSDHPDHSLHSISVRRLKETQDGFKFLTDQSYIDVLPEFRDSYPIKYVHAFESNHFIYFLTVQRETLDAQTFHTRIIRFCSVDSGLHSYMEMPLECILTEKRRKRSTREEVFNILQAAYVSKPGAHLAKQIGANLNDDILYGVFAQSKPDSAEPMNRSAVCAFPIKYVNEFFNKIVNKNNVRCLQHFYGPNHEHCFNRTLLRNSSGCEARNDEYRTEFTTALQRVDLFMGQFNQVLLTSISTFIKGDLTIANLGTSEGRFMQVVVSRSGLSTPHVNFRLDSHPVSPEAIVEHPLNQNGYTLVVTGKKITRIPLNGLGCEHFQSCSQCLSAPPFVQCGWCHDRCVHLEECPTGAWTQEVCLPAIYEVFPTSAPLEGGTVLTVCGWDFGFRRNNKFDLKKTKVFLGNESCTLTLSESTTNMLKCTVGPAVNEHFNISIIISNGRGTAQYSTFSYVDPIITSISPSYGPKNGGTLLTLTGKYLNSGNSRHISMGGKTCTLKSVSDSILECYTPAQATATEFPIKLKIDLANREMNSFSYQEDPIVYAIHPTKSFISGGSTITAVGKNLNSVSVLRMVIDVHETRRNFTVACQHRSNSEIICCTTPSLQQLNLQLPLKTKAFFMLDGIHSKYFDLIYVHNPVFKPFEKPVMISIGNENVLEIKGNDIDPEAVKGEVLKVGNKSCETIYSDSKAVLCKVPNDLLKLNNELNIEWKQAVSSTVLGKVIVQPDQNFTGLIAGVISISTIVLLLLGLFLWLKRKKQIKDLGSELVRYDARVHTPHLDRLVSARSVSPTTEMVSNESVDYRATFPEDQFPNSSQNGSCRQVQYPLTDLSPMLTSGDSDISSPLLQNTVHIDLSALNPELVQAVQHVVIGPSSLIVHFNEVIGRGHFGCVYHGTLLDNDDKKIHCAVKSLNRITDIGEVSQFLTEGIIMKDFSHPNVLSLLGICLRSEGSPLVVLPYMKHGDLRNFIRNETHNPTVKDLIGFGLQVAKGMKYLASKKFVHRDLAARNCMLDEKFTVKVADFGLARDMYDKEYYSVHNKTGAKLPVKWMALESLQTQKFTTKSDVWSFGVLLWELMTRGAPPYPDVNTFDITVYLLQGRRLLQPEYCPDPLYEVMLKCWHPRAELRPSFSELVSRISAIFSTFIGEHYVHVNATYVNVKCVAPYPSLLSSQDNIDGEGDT

Structure (SMILES) | inhibition (H1437) | growth inhibition (GI) (NCI-H1437) | Activity (MDCK) | inhibition [1] | growth inhibition (GI) (GTL 16) | IC50 [2]
O=C(Cc1cc(C(F)(F)F)cc(C(F)(F)F)c1)NC(Cc1ccccc1)c1cn(-c2ccc(-c3cn4c(n3)sc3ccccc34)cc2)nn1 (stereo not given) | Active | Dose-dependent effect | Non-toxic | Active | Dose-dependent effect | 8500 nM
O=C(Cc1cc(C(F)(F)F)cc(C(F)(F)F)c1)N[C@H](Cc1ccccc1)C(=O)Nc1ccc(-c2cn3c(n2)sc2ccccc23)cc1 |  |  | Non-toxic |  |  | 1190 nM
O=C(Cc1cc(C(F)(F)F)cc(C(F)(F)F)c1)N[C@@H](Cc1ccccc1)C(=O)Nc1ccc(-c2cn3c(n2)sc2ccccc23)cc1 |  |  | Non-toxic |  |  | 800 nM
